Assay results taken from ChEMBL document CHEMBL3885861, “Open TG-GATES”.

Species: Rattus norvegicus
Test: Open TG-GATES - Regimen: Single
Assay type: toxicity, organism-based, Sprague-Dawley
Parameters: regimen Single, gender Male, age 6 weeks
Conditions: in vivo, po, 50 mg/kg, route gavage, dose level High; for ALT / AST / BUN / CRE / Ca / Cl / DBIL / GLC / IP / K / LDH / Na / PL / RALB / TBIL / TC / TG / TP / gamma-GTP / A/G / ALP: tissue Plasma; for APTT / Bas / Eos / Fbg / Hb / Ht / Lym / MCH / MCHC / MCV / Mono / Neu / PT / Plat / RBC / Ret / WBC: tissue Blood; for KIDNEY_L / KIDNEY_R / KIDNEY_TOTAL: tissue Kidney; for LIVER: tissue Liver

COc1ccc2c(c1)c(CC(=O)O)c(C)n2C(=O)c1ccc(Cl)cc1 [INDOMETHACIN]
ALT (3 h): 41.2 IU/L
AST (3 h): 75 IU/L
BUN (3 h): 11.4 mg/dL
CRE (3 h): 0.4 mg/dL
Ca (3 h): 10.4 mg/dL
Cl (3 h): 102 meq/L
DBIL (3 h): 0.072 mg/dL
GLC (3 h): 217.4 mg/dL
IP (3 h): 10.5 mg/dL
K (3 h): 3.9 meq/L
LDH (3 h): 221 IU/L
Na (3 h): 140.4 meq/L
PL (3 h): 125.4 mg/dL
RALB (3 h): 3.3 g/dL
TBIL (3 h): 0.1 mg/dL
TC (3 h): 69.6 mg/dL
TG (3 h): 43.4 mg/dL
TP (3 h): 5.4 g/dL
gamma-GTP (3 h): 1 IU/L
TERMINAL_BW (6 h): 223.2 g
APTT (6 h): 18.3 s
Bas (6 h): 0%
Eos (6 h): 0.4%
Fbg (6 h): 214.4 mg/dL
Hb (6 h): 13.7 g/dL
Ht (6 h): 37.2%
Lym (6 h): 64%
MCH (6 h): 22.4 pg
MCHC (6 h): 36.9%
MCV (6 h): 60.8 fL
Mono (6 h): 4.6%
Neu (6 h): 28.6%
PT (6 h): 12.3 s
Plat (6 h): 113.8 x10_4/uL
RBC (6 h): 612.2 x10_4/ul
Ret (6 h): 8%
WBC (6 h): 123.9 x10_2/uL
KIDNEY_L (6 h): 0.9 g
KIDNEY_R (6 h): 0.9 g
KIDNEY_TOTAL (6 h): 1.9 g
LIVER (6 h): 9.5 g
A/G (6 h): 1.7
ALP (6 h): 705.2 IU/L
ALT (6 h): 35.4 IU/L
AST (6 h): 73 IU/L
BUN (6 h): 12.8 mg/dL
CRE (6 h): 0.4 mg/dL
Ca (6 h): 10.6 mg/dL
Cl (6 h): 102.6 meq/L
DBIL (6 h): 0.08 mg/dL
GLC (6 h): 194.2 mg/dL
IP (6 h): 9.4 mg/dL
K (6 h): 4.1 meq/L
LDH (6 h): 211.2 IU/L
Na (6 h): 140.4 meq/L
PL (6 h): 120.6 mg/dL
RALB (6 h): 3.3 g/dL
TBIL (6 h): 0.1 mg/dL
TC (6 h): 64.8 mg/dL
TG (6 h): 60.2 mg/dL
TP (6 h): 5.3 g/dL
gamma-GTP (6 h): 1 IU/L
TERMINAL_BW (9 h): 222.5 g
APTT (9 h): 19 s
Bas (9 h): 0%
Eos (9 h): 0.2%
Fbg (9 h): 215.2 mg/dL
Hb (9 h): 13.7 g/dL
Ht (9 h): 36.9%
Lym (9 h): 68.4%
MCH (9 h): 22.5 pg
MCHC (9 h): 37.2%
MCV (9 h): 60.4 fL
Mono (9 h): 3.8%
Neu (9 h): 24.8%
PT (9 h): 12.2 s
Plat (9 h): 113.6 x10_4/uL
RBC (9 h): 610.6 x10_4/ul
Ret (9 h): 8%
WBC (9 h): 107.9 x10_2/uL
KIDNEY_L (9 h): 1 g
KIDNEY_R (9 h): 1 g
KIDNEY_TOTAL (9 h): 1.9 g
LIVER (9 h): 9 g
A/G (9 h): 1.7
ALP (9 h): 738.8 IU/L
ALT (9 h): 30.4 IU/L
AST (9 h): 68.4 IU/L
BUN (9 h): 12.8 mg/dL
CRE (9 h): 0.4 mg/dL
Ca (9 h): 10.3 mg/dL
Cl (9 h): 103.8 meq/L
DBIL (9 h): 0.072 mg/dL
GLC (9 h): 200.8 mg/dL
IP (9 h): 9.9 mg/dL
K (9 h): 4.1 meq/L
LDH (9 h): 199 IU/L
Na (9 h): 140.6 meq/L
PL (9 h): 126.6 mg/dL
RALB (9 h): 3.3 g/dL
TBIL (9 h): 0.1 mg/dL
TC (9 h): 69.2 mg/dL
TG (9 h): 40.8 mg/dL
TP (9 h): 5.2 g/dL
gamma-GTP (9 h): 1.2 IU/L
TERMINAL_BW (24 h): 230 g
APTT (24 h): 21.7 s
Bas (24 h): 0%
Eos (24 h): 0%
Fbg (24 h): 260.8 mg/dL
Hb (24 h): 9.5 g/dL
Ht (24 h): 27%
Lym (24 h): 61.4%
MCH (24 h): 21.3 pg
MCHC (24 h): 35.1%
MCV (24 h): 60.6 fL
Mono (24 h): 2.8%
Neu (24 h): 33.4%
PT (24 h): 12.7 s
Plat (24 h): 67.9 x10_4/uL
RBC (24 h): 448.8 x10_4/ul
Ret (24 h): 8.4%
WBC (24 h): 122.6 x10_2/uL
KIDNEY_L (24 h): 1 g
KIDNEY_R (24 h): 1 g
KIDNEY_TOTAL (24 h): 2 g
LIVER (24 h): 10.4 g
A/G (24 h): 1.2
ALP (24 h): 484.2 IU/L
ALT (24 h): 25.2 IU/L
AST (24 h): 48 IU/L
BUN (24 h): 21.6 mg/dL
CRE (24 h): 0.4 mg/dL
Ca (24 h): 9.4 mg/dL
Cl (24 h): 106.2 meq/L
DBIL (24 h): 0.056 mg/dL
GLC (24 h): 167.8 mg/dL
IP (24 h): 8.6 mg/dL
K (24 h): 4.2 meq/L
LDH (24 h): 145.2 IU/L
Na (24 h): 141.2 meq/L
PL (24 h): 114 mg/dL
RALB (24 h): 1.9 g/dL
TBIL (24 h): 0.096 mg/dL
TC (24 h): 60.4 mg/dL
TG (24 h): 122.8 mg/dL
TP (24 h): 3.5 g/dL
gamma-GTP (24 h): 1 IU/L
